BindingDB's records for doi:10.1016/j.ejmech.2017.10.076 (Wayne State University, 2018)

Key:
Histone deacetylase 3 = Histone deacetylase 3 (Homo sapiens, UniProt O15379); experiment: Inhibition of HDAC3 in human HeLa-S3 cell lysates preincubated for 15 mins followed by HDAC-Glo substrate addition measured after 30 to 40 mins by fluorimetric method
Histone deacetylase 6 = molecular target: T1, Histone deacetylase 6 (Homo sapiens, UniProt Q9UBN7); experiment: Inhibition of HDAC6 in human HeLa-S3 cell lysates preincubated for 15 mins followed by HDAC-Glo substrate addition measured after 30 to 40 mins by fluorimetric method
T1 sequence (Q9UBN7 whole entry): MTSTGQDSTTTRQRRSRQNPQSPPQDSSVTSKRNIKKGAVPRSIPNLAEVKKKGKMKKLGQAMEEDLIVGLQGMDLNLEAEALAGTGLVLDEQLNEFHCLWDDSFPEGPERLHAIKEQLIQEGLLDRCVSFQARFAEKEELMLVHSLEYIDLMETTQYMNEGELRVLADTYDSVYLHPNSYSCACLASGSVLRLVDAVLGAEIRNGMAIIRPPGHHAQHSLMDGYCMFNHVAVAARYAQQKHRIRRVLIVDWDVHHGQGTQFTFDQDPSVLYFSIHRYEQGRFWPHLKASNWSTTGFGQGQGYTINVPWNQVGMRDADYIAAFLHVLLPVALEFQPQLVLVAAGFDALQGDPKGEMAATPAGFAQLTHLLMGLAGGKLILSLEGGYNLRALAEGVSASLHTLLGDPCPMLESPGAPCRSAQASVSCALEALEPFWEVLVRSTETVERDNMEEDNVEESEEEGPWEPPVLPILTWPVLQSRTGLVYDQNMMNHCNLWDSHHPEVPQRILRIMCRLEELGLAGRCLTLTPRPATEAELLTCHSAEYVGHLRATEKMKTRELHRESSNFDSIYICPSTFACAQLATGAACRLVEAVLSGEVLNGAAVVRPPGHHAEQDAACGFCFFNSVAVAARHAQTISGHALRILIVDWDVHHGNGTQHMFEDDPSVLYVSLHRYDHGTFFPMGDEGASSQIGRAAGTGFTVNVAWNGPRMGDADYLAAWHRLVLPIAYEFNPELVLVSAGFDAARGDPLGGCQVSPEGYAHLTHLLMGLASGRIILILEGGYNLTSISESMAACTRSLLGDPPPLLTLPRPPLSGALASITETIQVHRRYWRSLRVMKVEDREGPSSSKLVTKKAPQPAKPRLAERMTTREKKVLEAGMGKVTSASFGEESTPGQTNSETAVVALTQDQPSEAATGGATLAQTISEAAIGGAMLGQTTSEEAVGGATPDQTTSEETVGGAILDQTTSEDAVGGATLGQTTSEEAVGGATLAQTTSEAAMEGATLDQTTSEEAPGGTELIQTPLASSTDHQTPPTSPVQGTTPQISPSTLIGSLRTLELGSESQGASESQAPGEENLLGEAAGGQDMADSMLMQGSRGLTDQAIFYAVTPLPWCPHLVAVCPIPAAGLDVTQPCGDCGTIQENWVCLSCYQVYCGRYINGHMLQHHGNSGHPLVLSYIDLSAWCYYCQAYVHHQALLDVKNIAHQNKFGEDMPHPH

Histone deacetylase 1 = Histone deacetylase 1 (Homo sapiens, UniProt Q13547); experiment: Inhibition of HDAC1 in human HeLa-S3 cell lysates preincubated for 15 mins followed by HDAC-Glo substrate addition measured after 30 to 40 mins by fluorimetric method
Histone deacetylase 8 = molecular target: T2, Histone deacetylase 8 (Homo sapiens, UniProt Q9BY41); experiment: Inhibition of human recombinant full-length C-terminal His-tagged HDAC8 expressed in baculovirus infected Sf9 insect cell preincubated for 15 mins followed by HDAC-Glo substrate addition measured after 30 mins by fluorimetric method
T2 sequence (Q9BY41 whole entry): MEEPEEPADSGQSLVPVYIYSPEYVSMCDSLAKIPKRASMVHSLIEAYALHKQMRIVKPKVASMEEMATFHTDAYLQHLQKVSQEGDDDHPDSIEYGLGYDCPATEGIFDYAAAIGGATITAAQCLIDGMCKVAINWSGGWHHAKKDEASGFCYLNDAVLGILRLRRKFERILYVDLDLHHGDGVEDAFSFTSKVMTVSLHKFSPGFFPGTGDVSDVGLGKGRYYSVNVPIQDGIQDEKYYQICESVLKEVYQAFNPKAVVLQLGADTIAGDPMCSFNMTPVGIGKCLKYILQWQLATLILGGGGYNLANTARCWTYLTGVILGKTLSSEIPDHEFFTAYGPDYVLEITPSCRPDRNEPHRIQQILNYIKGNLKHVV

Chain of Histone deacetylase 1 (Q13547 whole entry): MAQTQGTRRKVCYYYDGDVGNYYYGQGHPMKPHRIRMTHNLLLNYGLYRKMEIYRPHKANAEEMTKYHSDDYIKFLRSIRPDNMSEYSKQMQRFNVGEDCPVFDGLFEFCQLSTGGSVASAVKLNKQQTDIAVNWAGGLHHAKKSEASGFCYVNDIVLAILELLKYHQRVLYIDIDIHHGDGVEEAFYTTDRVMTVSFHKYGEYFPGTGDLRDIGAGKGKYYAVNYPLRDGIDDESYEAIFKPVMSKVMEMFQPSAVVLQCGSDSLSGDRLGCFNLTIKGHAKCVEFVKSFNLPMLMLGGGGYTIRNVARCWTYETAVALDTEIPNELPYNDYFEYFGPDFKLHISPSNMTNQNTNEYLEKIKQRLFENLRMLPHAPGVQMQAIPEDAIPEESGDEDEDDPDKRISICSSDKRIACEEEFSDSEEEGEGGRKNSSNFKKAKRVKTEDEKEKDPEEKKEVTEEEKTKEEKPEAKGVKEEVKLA
Chain of Histone deacetylase 3 (O15379 whole entry): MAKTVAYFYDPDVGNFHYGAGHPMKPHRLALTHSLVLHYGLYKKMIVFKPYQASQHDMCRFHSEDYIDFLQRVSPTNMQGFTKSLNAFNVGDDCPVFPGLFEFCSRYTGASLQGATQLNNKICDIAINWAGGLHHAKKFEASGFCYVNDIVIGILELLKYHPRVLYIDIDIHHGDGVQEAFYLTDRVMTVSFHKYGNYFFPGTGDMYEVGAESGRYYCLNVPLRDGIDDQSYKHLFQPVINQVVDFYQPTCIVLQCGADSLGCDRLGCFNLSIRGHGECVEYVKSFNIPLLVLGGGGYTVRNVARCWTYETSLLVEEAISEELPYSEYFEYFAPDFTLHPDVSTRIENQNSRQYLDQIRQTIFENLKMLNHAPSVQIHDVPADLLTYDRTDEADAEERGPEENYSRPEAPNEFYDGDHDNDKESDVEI

IC50 (Histone deacetylase 3): 23 µM | IC50 (Histone deacetylase 6): 0.11 µM | IC50 (Histone deacetylase 1): 11 µM | IC50 (Histone deacetylase 8): 0.29 µM
SMILES: O=C(CCC(CCCC(=O)Nc1ccccc1)c1ccccc1)NO (centres undefined)
